The text below walks through data of patent publication US11780843B2, “Compounds active towards nuclear receptors” (NUEVOLUTION A/S, priority 2020, dated 2023).

The structures appear in SMILES notation. pIC50: −log10 of the molar value. Read-outs that look alike come from different tables or passages of the source.

Assay [1] concerns the target T1, RORγ ligand-binding domain (Homo sapiens, UniProt P51449).
T1 construct: Gal4 (galactose-responsive transcription factor); expressed in transfected cells; host or cells: HEK293, transient co-transfection
T1 sequence (P51449 269-508 limits assumed): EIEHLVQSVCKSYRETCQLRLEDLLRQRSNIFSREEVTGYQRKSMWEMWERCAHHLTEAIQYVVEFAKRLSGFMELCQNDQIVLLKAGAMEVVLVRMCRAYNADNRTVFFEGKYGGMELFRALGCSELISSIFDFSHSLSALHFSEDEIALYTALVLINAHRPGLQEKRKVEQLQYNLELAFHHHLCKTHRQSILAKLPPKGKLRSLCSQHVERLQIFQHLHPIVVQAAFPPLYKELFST
Kind of assay: RORγ Reporter Assay (Gal4). It is filed as cell-based. Here is the method:
The HEK293 cell line is co-transfected transiently with two plasmids, one with the RORγ ligand-binding domain fused to galactose-responsive transcription factor (Ga14), and the other with the luciferase reporter gene and Gal binding sites (UAS). This construction allows to determine the RORT activity in a cellular system through the measurement of luminescence.
A suspension of RORγ reporter cells was dispensed into plates and cultured 2 h at 37° C. and 5% CO2. Media formulation consisted in DMEM/F-12 medium (Gibco) supplemented with 10% heat inactivated FBS (Sigma-Aldrich), non-essential aminoacids (Sigma-Aldrich), 2 mM Glutamax (Gibco) and 100 U/mL penicillin (Sigma-Aldrich). Dose-response curves with compounds were prepared in 100% DMSO and further diluted 100-fold in culture medium. Compound solutions were added to the plate containing cells (final DMSO concentration of 0.1%) and incubated for 24 h at 37° C. and 5% CO2. Luciferase detection reagent was added to each well, and relative light units (RLUs) were quantified from each assay well using a plate reading luminometer.
Values of average RLU±S.D. were computed for all treatment sets, followed by the calculations of percent-reduction of RORT activity in response to respective test compound. The following formula was used: activity=100*[1−[[…]] where the theoretical minimum reduction (0% reduction). […] These calculations were performed in excel-fit software using X-204 model curve.
On the technique in general: A reporter such as luciferase makes a cellular process visible.

In assay [2] the test system is IL-17A secretion in activated PBMCs. Kind of assay: IL-17A secretion in activated PBMCs. Type of assay: cell-based. The conditions noted are these: Homo sapiens, PBMC, 48 h, human PBMCs stimulated with CD3/CD28 Dynabeads for 48 h, absolute IC50. The source says: Heparin-treated whole blood from healthy human volunteers was supplied from Hospital de Sant Pau (Barcelona) under the approval of the local ethical review board for human studies (Hospital de Sant Pau, Barcelona, Spain). Human peripheral blood mononuclear cells (PBMCs) were isolated from healthy human volunteers by density gradient centrifugation using the Ficoll-Paque (GE Healthcare). PBMCs were suspended in cell culture medium which consisted on RPMI 1640 medium (Sigma-Aldrich) containing 10% heat inactivated fetal bovine serum (Sigma-Aldrich), 2 mM L-Glutamine (Gibco), 20 mM Hepes (Gibco) and 100 U/mL penicillin (Sigma-Aldrich). Cells were seeded in 384-well plate (DiscoverX), at 40,000 cells per well and cultured 2 h at 37° C. and 5% CO2.
Dose-response curves with compounds were prepared using a 5-fold serial dilution (10 concentrations) in 100% DMSO and further diluted 100-fold in culture medium. Compound solutions (5 μL) were added to the plate containing cells (final DMSO concentration of 0.1%) and incubated for 30 min. Then, cells were stimulated with CD3/CD28 Dynabeads (ThermoFisher, at a bead-to-cell ratio of 1:1) for 48 h at 37° C. and 5% CO2.
IL-17A levels in supernatant were determined by immunoassay using hIL17A QBeads (Intellicyt) and by fluorescence analysis in iQue flow cytometer following the manufacturer's instructions. Inhibition of IL-17A secretion was calculated using the following formula: inhibition=100*[1−[(x−mean basal condition)/(mean top condition—mean basal condition)]]. Activated DMSO-treated cells were used as top condition and activated GNE09461 (10 μM)-treated cells as basal condition.

[3] abbreviates: HEK293 cells, luciferase reporter, 24 h incubation, absolute IC50, read-out: IC50.
[4] abbreviates: Table 5 b, bound estimated from % inhibition at 0.1 and/or 1 uM, read-out: RORγ Gal4 assay (based on % inhibition at 0.1 and/or 1 uM) IC50.
The mark [5] stands for this setting: stated as a bound only (Tables 5 a, 6, 7), read-out: Gal4 assay IC50.

For the molecule `CN(Cc1ccc(C(F)(F)F)cc1)c1ncnc2c1c(F)cn2C[C@@H]1CCN(CC(N)=O)C[C@H]1O` (racemic) [Example P6-12, rac-2-((3R,4R)-4-((5-fluoro-4-(methyl(4-(trifluoromethyl)benzyl)amino)-7H-pyrrolo[2,3-d]pyrimidin-7-yl)methyl)-3-hydroxypiperidin-1-yl)acetamide], the pIC50 in assay [1] (setting [3]) is 8.28; in assay [2], 7.52.

As for `NC(=O)CN1CC[C@@H](Cn2ccc3c(N(Cc4ccc(C(F)(F)F)cc4)C4CC4)ncnc32)[C@H](O)C1` (racemic) [Example P6-13, rac-2-((3R,4R)-4-((4-(cyclopropyl(4-(trifluoromethyl)benzyl)amino)-7H-pyrrolo[2,3-d]pyrimidin-7-yl)methyl)-3-hydroxypiperidin-1-yl)acetamide], the pIC50 in assay [1] (setting [3]) was 9.05; in assay [2], 8.82. Take `NC(=O)CN1CC[C@@H](Cn2cc(F)c3c(N(Cc4ccc(C(F)(F)F)cc4)C4CC4)ncnc32)[C@H](O)C1` (racemic) [Example P6-14, rac-2-((3R,4R)-4-((4-(cyclopropyl(4-(trifluoromethyl)benzyl)amino)-5-fluoro-7H-pyrrolo[2,3-d]pyrimidin-7-yl)methyl)-3-hydroxypiperidin-1-yl)acetamide]: the pIC50 in assay [1] (setting [3]) was 9.00; in assay [2], 8.66. For `NC(=O)CN1CC[C@@H](Cn2cc(F)c3c(N(Cc4ccc(C(F)(F)F)nc4)C4CC4)ncnc32)[C@H](O)C1` (racemic) [Example P6-15, rac-2-((3R,4R)-4-((4-(cyclopropyl((6-(trifluoromethyl)pyridin-3-yl)methyl)amino)-5-fluoro-7H-pyrrolo[2,3-d]pyrimidin-7-yl)methyl)-3-hydroxypiperidin-1-yl)acetamide] the same measures were 8.00 and 7.74. For `NC(=O)CN1CC[C@@H](Cn2ccc3c(N(Cc4ccc(C(F)(F)F)nc4)C4CC4)ncnc32)[C@H](O)C1` (racemic) [Example P6-16, rac-2-((3R,4R)-4-((4-(cyclopropyl((6-(trifluoromethyl)pyridin-3-yl)methyl)amino)-7H-pyrrolo[2,3-d]pyrimidin-7-yl)methyl)-3-hydroxypiperidin-1-yl)acetamide] the same measures were 8.30 and 7.77. Consider `NC(=O)CN1CC[C@@H](Cn2cc(F)c3c(N(Cc4ccc(C(F)(F)F)cn4)C4CC4)ncnc32)[C@H](O)C1` (racemic) [Example P6-18, rac-2-((3R,4R)-4-((4-(cyclopropyl((5-(trifluoromethyl)pyridin-2-yl)methyl)amino)-5-fluoro-7H-pyrrolo[2,3-d]pyrimidin-7-yl)methyl)-3-hydroxypiperidin-1-yl)acetamide], for which the figures for the pIC50 in assay [1] (setting [3]) and in assay [2] were 8.34 and 7.85, respectively. For `CC(C)N(Cc1ccc(C(F)(F)F)cc1)c1ncnc2c1c(F)cn2C[C@@H]1CCN(CC(N)=O)C[C@H]1O` (racemic) [Example P6-19, rac-2-((3R,4R)-4-((5-fluoro-4-(isopropyl(4-(trifluoromethyl)benzyl)amino)-7H-pyrrolo[2,3-d]pyrimidin-7-yl)methyl)-3-hydroxypiperidin-1-yl)acetamide] the same measures were 8.01 and 7.82. Regarding `CCN(Cc1ccc(C(F)(F)F)cc1)c1ncnc2c1c(F)cn2C[C@@H]1CCN(CC(N)=O)C[C@H]1O` (racemic) [Example P6-21, rac-2-((3R,4R)-4-((4-(ethyl(4-(trifluoromethyl)benzyl)amino)-5-fluoro-7H-pyrrolo[2,3-d]pyrimidin-7-yl)methyl)-3-hydroxypiperidin-1-yl)acetamide], the pIC50 is 8.18 in assay [1] (setting [3]) and 7.96 in assay [2]. Turning to `NC(=O)CN1CC[C@@H](Cn2ccc3c(N(Cc4ccc(C(F)(F)F)cn4)C4CC4)ncnc32)[C@H](O)C1` (racemic) [Example P6-23, rac-2-((3R,4R)-4-((4-(cyclopropyl((5-(trifluoromethyl)pyridin-2-yl)methyl)amino)-7H-pyrrolo[2,3-d]pyrimidin-7-yl)methyl)-3-hydroxypiperidin-1-yl)acetamide], the pIC50 in assay [1] (setting [3]) is 8.28; in assay [2], 7.92. For `CCN(Cc1ccc(C(F)(F)F)cc1)c1ncnc2c1ccn2C[C@@H]1CCN(CC(N)=O)C[C@H]1O` (racemic) [Example P6-24, rac-2-((3R,4R)-4-((4-(ethyl(4-(trifluoromethyl)benzyl)amino)-7H-pyrrolo[2,3-d]pyrimidin-7-yl)methyl)-3-hydroxypiperidin-1-yl)acetamide] the same measures were 8.34 and 7.66. On to `CC(C)N(Cc1ccc(C(F)(F)F)cc1)c1ncnc2c1ccn2C[C@@H]1CCN(CC(N)=O)C[C@H]1O` (racemic) [Example P6-25, rac-2-((3R,4R)-3-hydroxy-4-((4-(isopropyl(4-(trifluoromethyl)benzyl)amino)-7H-pyrrolo[2,3-d]pyrimidin-7-yl)methyl)piperidin-1-yl)acetamide], for which the pIC50 in assay [1] (setting [3]) is 7.82; in assay [2], 7.46. Consider `NC(=O)Cc1ccc(Cn2ccc3c(N4CCOC[C@@H]4c4ccc(C(F)(F)F)cn4)ncnc32)cc1` [Example 328, reference compound], for which the pIC50 in assay [1] (setting [4]) and in assay [1] (setting [5]) was over 7.00 each time. Take `NC(=O)Cc1ccc(Cn2ccc3c(N(Cc4ccc(C(F)(F)F)cc4)C4CC4)ncnc32)cc1` [Example I1, reference compound]: the pIC50 in assay [1] (setting [4]) and in assay [1] (setting [5]) was over 7.00 each time. Take `N#Cc1cn(CC2CCN(CC(N)=O)CC2)c2ncnc(N(Cc3ccc(C(F)(F)F)cc3)C3CC3)c12` [Example P6-07, 2-(4-((5-cyano-4-(cyclopropyl(4-(trifluoromethyl)benzyl)amino)-7H-pyrrolo[2,3-d]pyrimidin-7-yl)methyl)piperidin-1-yl)acetamide]: the pIC50 in assay [1] (setting [3]) was 6.55. On the same count and under the same terms, in the case of `CC(C(N)=O)N1CCC(Cn2cnc3c(N(Cc4ccc(C(F)(F)F)cc4)C4CC4)ncnc32)CC1` (centres unmarked) [Example P6-08, 2-(4-((6-(cyclopropyl(4-(trifluoromethyl)benzyl)amino)-9H-purin-9-yl)methyl)piperidin-1-yl)propanamide] it was 6.64; in that of `CC(C)(C(N)=O)N1CCC(Cn2cnc3c(N(Cc4ccc(C(F)(F)F)cc4)C4CC4)ncnc32)CC1` [Example P6-09, 2-(4-((6-(cyclopropyl(4-(trifluoromethyl)benzyl)amino)-9H-purin-9-yl)methyl)piperidin-1-yl)-2-methylpropanamide], under 6.00. The same measure, in the same setting: in the case of `NC(=O)CN1CCC(Cn2cc(F)c3c(N(Cc4ccc(C(F)(F)F)nc4)C4CC4)ncnc32)CC1` [Example P6-10, 2-(4-((4-(cyclopropyl((6-(trifluoromethyl)pyridin-3-yl)methyl)amino)-5-fluoro-7H-pyrrolo[2,3-d]pyrimidin-7-yl)methyl)piperidin-1-yl)acetamide] it was 7.03.

Consider `NC(=O)CN1CCC(Cn2ccc3c(N4CCOC[C@@H]4c4ccc(C(F)(F)F)cn4)ncnc32)CC1` [Example Q4-2, (S)-2-(4-((4-(3-(5-(trifluoromethyl)pyridin-2-yl)morpholino)-7H-pyrrolo[2,3-d]pyrimidin-7-yl)methyl)piperidin-1-yl)acetamide], for which the pIC50 in assay [1] (setting [3]) is 6.48; in assay [1] (setting [5]), over 6.30.
